# Legend:
# ABUTH (Velvetleaf) [1] = test: Postemergence herbicidal evaluation; assay type: in vivo, Abutilon theophrasti; conditions: for Herbicidal rating ABUTH: postemergence
# Summary of the method: (§1)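 Herbicidal effect was judged by eye on a 0–9 scale covering stand, vigor, deformity, size and chlorosis, compared with controls, four to five weeks after seedlings about two weeks old were sprayed (40 psi, ~0.0156–0.500 kg/ha).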
# [2] = test system: IPOHE (Morningglory, Ivyleaf); test: Postemergence herbicidal evaluation; assay type: in vivo, Ipomoea hederacea; conditions: for Herbicidal rating IPOHE: postemergence
# Summary of the method: as §1
# SETVI (Foxtail, Green) = test: Postemergence herbicidal evaluation; assay type: in vivo, Setaria viridis; conditions: for Herbicidal rating SETVI: postemergence
# Summary of the method: as §1
# [3] = test system: GLXMAW (Soybean, Williams); test: Postemergence herbicidal evaluation; assay type: in vivo, Glycine max, (L.) Merr. cv Williams; conditions: for Herbicidal rating GLXMAW: postemergence
# Summary of the method: as §1
# ZEAMX (Corn, Field) = test: Postemergence herbicidal evaluation; assay type: in vivo, Zea mays; conditions: for Herbicidal rating ZEAMX: postemergence
# Summary of the method: as §1
# ABUTH (Velvetleaf) [4] = test: Preemergence herbicidal evaluation; assay type: in vivo, Abutilon theophrasti; conditions: rated 4-5 weeks after treatment
# Summary of the method: (§2)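 In this greenhouse assay, monocot and dicot seeds are planted in soil and treated prior to emergence with an aqueous acetone spray (about 0.0156-0.500 kg/ha). Plants are assessed visually against control on a 0-9 scale after 4-5 weeks.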
# AMBEL (Ragweed, Common) = test: Preemergence herbicidal evaluation; assay type: in vivo, Ambrosia artemisifolia; conditions: rated 4-5 weeks after treatment
# Summary of the method: as §2
# CASOB (Sicklepod) = test: Preemergence herbicidal evaluation; assay type: in vivo, Cassia obtusifolia; conditions: rated 4-5 weeks after treatment
# Summary of the method: as §2
# [5] = test system: IPOHE (Morningglory, Ivyleaf); test: Preemergence herbicidal evaluation; assay type: in vivo, Ipomoea hederacea; conditions: rated 4-5 weeks after treatment
# Summary of the method: as §2
# ECHCG (Barnyardgrass) = test: Preemergence herbicidal evaluation; assay type: in vivo, Echinochloa crus-galli; conditions: rated 4-5 weeks after treatment
# Summary of the method: as §2
# [6] = test system: ECHORC (Watergrass (Calif.)); test: Preemergence weed control under flooded paddy conditions; assay type: in vivo, Echinochloa oryzoides; conditions: rated 3-4 weeks after treatment
# Summary of the method: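 Seeds or propagules sown in silt loam kept flooded 1.5-3 cm; compounds in 50/50 acetone/water pipetted into flood water at about 0.0313 to 0.500 kg/ha. Greenhouse; visual 0-9 rating versus untreated control 3-4 weeks after treatment.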
# CYPSE (Flatsedge) = test: as above; assay type: in vivo, Cyperus serotinus; conditions: rated 3-4 weeks after treatment
# Summary of the method: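 First, seeds or propagules go into the top 0.5 cm of silt loam; next, water is held 1.5 to 3 cm over the soil; then compound (50/50 acetone/water) is pipetted into it at about 0.0313 to 0.500 kg/ha; finally plants are rated visually 0-9 after three to four weeks.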
smiles,measurement,setting,value
"Cn1c(C(F)(F)F)cc(=O)n(-c2cc(N=C3SCC(=O)N3C3CCC3)c(Cl)cc2F)c1=O [Compound 168, 3-{4-Chloro-5-[(3-cyclobutyl-4-oxo-2-thiazolidinylidene)amino]-2-fluorophenyl}-1-methyl-6-(trifluoromethyl)-2,4(1H,3H)-pyrimidinedione]",Herbicidal rating ABUTH,ABUTH (Velvetleaf) [1]; rate 0.0156 kg/ha,9.0
same,Herbicidal rating ABUTH,ABUTH (Velvetleaf) [1]; rate 0.0313 kg/ha,9.0
same,Herbicidal rating ABUTH,ABUTH (Velvetleaf) [1]; rate 0.0625 kg/ha,9.0
same,Herbicidal rating IPOHE,[2]; rate 0.0156 kg/ha,5.0
same,Herbicidal rating IPOHE,[2]; rate 0.0313 kg/ha,9.0
same,Herbicidal rating IPOHE,[2]; rate 0.0625 kg/ha,9.0
same,Herbicidal rating SETVI,"SETVI (Foxtail, Green); rate 0.0156 kg/ha",0.0
same,Herbicidal rating SETVI,"SETVI (Foxtail, Green); rate 0.0313 kg/ha",0.0
same,Herbicidal rating SETVI,"SETVI (Foxtail, Green); rate 0.0625 kg/ha",3.0
same,Herbicidal rating GLXMAW,[3]; rate 0.0156 kg/ha,5.5
same,Herbicidal rating GLXMAW,[3]; rate 0.0313 kg/ha,6.5
same,Herbicidal rating GLXMAW,[3]; rate 0.0625 kg/ha,7.0
same,Herbicidal rating ZEAMX,"ZEAMX (Corn, Field); rate 0.0156 kg/ha",4.5
same,Herbicidal rating ZEAMX,"ZEAMX (Corn, Field); rate 0.0313 kg/ha",4.5
same,Herbicidal rating ZEAMX,"ZEAMX (Corn, Field); rate 0.0625 kg/ha",7.0
same,Preemergence herbicidal rating ABUTH,ABUTH (Velvetleaf) [4]; 0.0156 kg/ha,0.0
same,Preemergence herbicidal rating ABUTH,ABUTH (Velvetleaf) [4]; 0.0313 kg/ha,0.0
same,Preemergence herbicidal rating ABUTH,ABUTH (Velvetleaf) [4]; 0.0625 kg/ha,4.0
same,Preemergence herbicidal rating ABUTH,ABUTH (Velvetleaf) [4]; 0.1250 kg/ha,9.0
same,Preemergence herbicidal rating ABUTH,ABUTH (Velvetleaf) [4]; 0.2500 kg/ha,9.0
same,Preemergence herbicidal rating AMBEL,"AMBEL (Ragweed, Common); 0.0156 kg/ha",0.0
same,Preemergence herbicidal rating AMBEL,"AMBEL (Ragweed, Common); 0.0313 kg/ha",0.0
same,Preemergence herbicidal rating AMBEL,"AMBEL (Ragweed, Common); 0.0625 kg/ha",0.0
same,Preemergence herbicidal rating AMBEL,"AMBEL (Ragweed, Common); 0.1250 kg/ha",0.0
same,Preemergence herbicidal rating AMBEL,"AMBEL (Ragweed, Common); 0.2500 kg/ha",5.0
same,Preemergence herbicidal rating CASOB,CASOB (Sicklepod); 0.0156 kg/ha,0.0
same,Preemergence herbicidal rating CASOB,CASOB (Sicklepod); 0.0313 kg/ha,0.0
same,Preemergence herbicidal rating CASOB,CASOB (Sicklepod); 0.0625 kg/ha,0.0
same,Preemergence herbicidal rating CASOB,CASOB (Sicklepod); 0.1250 kg/ha,0.0
same,Preemergence herbicidal rating CASOB,CASOB (Sicklepod); 0.2500 kg/ha,0.0
same,Preemergence herbicidal rating IPOHE,[5]; 0.0156 kg/ha,0.0
same,Preemergence herbicidal rating IPOHE,[5]; 0.0313 kg/ha,0.0
same,Preemergence herbicidal rating IPOHE,[5]; 0.0625 kg/ha,0.0
same,Preemergence herbicidal rating IPOHE,[5]; 0.1250 kg/ha,3.0
same,Preemergence herbicidal rating IPOHE,[5]; 0.2500 kg/ha,4.0
same,Preemergence herbicidal rating ECHCG,ECHCG (Barnyardgrass); 0.0156 kg/ha,0.0
same,Preemergence herbicidal rating ECHCG,ECHCG (Barnyardgrass); 0.0313 kg/ha,0.0
same,Preemergence herbicidal rating ECHCG,ECHCG (Barnyardgrass); 0.0625 kg/ha,0.0
same,Preemergence herbicidal rating ECHCG,ECHCG (Barnyardgrass); 0.1250 kg/ha,0.0
same,Preemergence herbicidal rating ECHCG,ECHCG (Barnyardgrass); 0.2500 kg/ha,0.0
same,"herbicidal effect rating, ECHORC",[6]; 0.0313 kg/ha,0.0
same,"herbicidal effect rating, ECHORC",[6]; 0.0625 kg/ha,0.0
same,"herbicidal effect rating, ECHORC",[6]; 0.1250 kg/ha,0.0
same,"herbicidal effect rating, ECHORC",[6]; 0.2500 kg/ha,0.0
same,"herbicidal effect rating, CYPSE",CYPSE (Flatsedge); 0.0313 kg/ha,0.0
same,"herbicidal effect rating, CYPSE",CYPSE (Flatsedge); 0.0625 kg/ha,0.0
same,"herbicidal effect rating, CYPSE",CYPSE (Flatsedge); 0.1250 kg/ha,0.0
"COCCCN1C(=O)CSC1=Nc1cc(-n2c(=O)cc(C(F)(F)F)n(C)c2=O)c(F)cc1Cl [Compound 172, 3-{4-Chloro-2-fluoro-5-{[3-(3-methoxypropyl)-4-oxo-2-thiazolidinylidene]amino}phenyl}-1-methyl-6-(trifluoromethyl)-2,4(1H, 3H)-pyrimidinedione]",Postemergence herbicidal rating ABUTH,ABUTH (Velvetleaf) [1]; Rate 0.0313 kg/ha,9.0
same,Postemergence herbicidal rating ABUTH,ABUTH (Velvetleaf) [1]; Rate 0.0625 kg/ha,9.0
same,Postemergence herbicidal rating ABUTH,ABUTH (Velvetleaf) [1]; rate 0.0156 kg/ha,9.0
same,Postemergence herbicidal rating IPOHE,[2]; Rate 0.0313 kg/ha,9.0
same,Postemergence herbicidal rating IPOHE,[2]; Rate 0.0625 kg/ha,9.0
same,Postemergence herbicidal rating IPOHE,[2]; rate 0.0156 kg/ha,9.0
same,Postemergence herbicidal rating SETVI,"SETVI (Foxtail, Green); Rate 0.0313 kg/ha",3.0
same,Postemergence herbicidal rating SETVI,"SETVI (Foxtail, Green); Rate 0.0625 kg/ha",2.0
same,Postemergence herbicidal rating SETVI,"SETVI (Foxtail, Green); rate 0.0156 kg/ha",2.0
same,Postemergence herbicidal rating GLXMAW,[3]; Rate 0.0313 kg/ha,6.5
same,Postemergence herbicidal rating GLXMAW,[3]; Rate 0.0625 kg/ha,7.0
same,Postemergence herbicidal rating GLXMAW,[3]; rate 0.0156 kg/ha,6.0
same,Postemergence herbicidal rating ZEAMX,"ZEAMX (Corn, Field); Rate 0.0313 kg/ha",5.0
same,Postemergence herbicidal rating ZEAMX,"ZEAMX (Corn, Field); Rate 0.0625 kg/ha",5.0
same,Postemergence herbicidal rating ZEAMX,"ZEAMX (Corn, Field); rate 0.0156 kg/ha",5.0
same,Preemergence herbicidal rating ABUTH,ABUTH (Velvetleaf) [4]; 0.0156 kg/ha,9.0
same,Preemergence herbicidal rating ABUTH,ABUTH (Velvetleaf) [4]; 0.0313 kg/ha,9.0
same,Preemergence herbicidal rating ABUTH,ABUTH (Velvetleaf) [4]; 0.0625 kg/ha,9.0
same,Preemergence herbicidal rating ABUTH,ABUTH (Velvetleaf) [4]; 0.1250 kg/ha,9.0
same,Preemergence herbicidal rating ABUTH,ABUTH (Velvetleaf) [4]; 0.2500 kg/ha,9.0
same,Preemergence herbicidal rating AMBEL,"AMBEL (Ragweed, Common); 0.0156 kg/ha",5.0
same,Preemergence herbicidal rating AMBEL,"AMBEL (Ragweed, Common); 0.0313 kg/ha",7.0
same,Preemergence herbicidal rating AMBEL,"AMBEL (Ragweed, Common); 0.0625 kg/ha",9.0
same,Preemergence herbicidal rating AMBEL,"AMBEL (Ragweed, Common); 0.1250 kg/ha",9.0
same,Preemergence herbicidal rating AMBEL,"AMBEL (Ragweed, Common); 0.2500 kg/ha",9.0
same,Preemergence herbicidal rating CASOB,CASOB (Sicklepod); 0.0156 kg/ha,1.0
same,Preemergence herbicidal rating CASOB,CASOB (Sicklepod); 0.0313 kg/ha,3.0
same,Preemergence herbicidal rating CASOB,CASOB (Sicklepod); 0.0625 kg/ha,7.0
same,Preemergence herbicidal rating CASOB,CASOB (Sicklepod); 0.1250 kg/ha,9.0
same,Preemergence herbicidal rating CASOB,CASOB (Sicklepod); 0.2500 kg/ha,9.0
same,Preemergence herbicidal rating IPOHE,[5]; 0.0156 kg/ha,2.0
same,Preemergence herbicidal rating IPOHE,[5]; 0.0313 kg/ha,7.0
same,Preemergence herbicidal rating IPOHE,[5]; 0.0625 kg/ha,7.0
same,Preemergence herbicidal rating IPOHE,[5]; 0.1250 kg/ha,9.0
same,Preemergence herbicidal rating IPOHE,[5]; 0.2500 kg/ha,9.0
same,Preemergence herbicidal rating ECHCG,ECHCG (Barnyardgrass); 0.0156 kg/ha,4.0
same,Preemergence herbicidal rating ECHCG,ECHCG (Barnyardgrass); 0.0313 kg/ha,6.0
same,Preemergence herbicidal rating ECHCG,ECHCG (Barnyardgrass); 0.0625 kg/ha,8.0
same,Preemergence herbicidal rating ECHCG,ECHCG (Barnyardgrass); 0.1250 kg/ha,8.0
same,Preemergence herbicidal rating ECHCG,ECHCG (Barnyardgrass); 0.2500 kg/ha,9.0
same,"herbicidal effect rating, ECHORC",[6]; 0.0313 kg/ha,6.0
same,"herbicidal effect rating, ECHORC",[6]; 0.0625 kg/ha,9.0
same,"herbicidal effect rating, ECHORC",[6]; 0.1250 kg/ha,9.0
same,"herbicidal effect rating, ECHORC",[6]; 0.2500 kg/ha,9.0
same,"herbicidal effect rating, CYPSE",CYPSE (Flatsedge); 0.0625 kg/ha,6.0
same,"herbicidal effect rating, CYPSE",CYPSE (Flatsedge); 0.1250 kg/ha,9.0
same,"herbicidal effect rating, CYPSE",CYPSE (Flatsedge); 0.2500 kg/ha,9.0
